The results in this text go back to patent US20260071117A1, “FUNABLE FLUORESCENT COMPOUNDS AND USES THEREOF” (Arizona Board of Regents on Behalf of the University of …, priority 2021, published 2026).

A short description of the data set: Absorbance and fluorescence measurements (excitation maximum, emission maximum, quantum yield vs coumarin 151). The format is physicochemical. Further details: key to Quantum Yield: fraction relative to coumarin 151 in ethanol standard. The conditions noted are these: for λex: absorbance/excitation maximum; for λem: emission maximum. The source says: All reagents and solvents were acquired from commercially available suppliers and used without further purification. Methanol(dried on molecular sieves-Acroseal) was obtained from Acros. […] 1H and 13C NMR spectra were obtained on a Bruker NMR spectrometer at 500/400 and 125/100 MHz respectively. The data is reported as follows: chemical shift in ppm (δ), multiplicity (s=singlet, d=doublet, dd=doublet of doublets, t=triplet, dt=doublet of triplets, td=triplet of doublets, q=quartet, p=pentet, m=multiplet). Coupling constants are reported in Hertz (Hz) and were automatically generated using known NMR analyzer software (MestReNova), these were then subsequently curated. High-resolution mass spectra were obtained using the positive ESI method for all the compounds, obtained in an Ion Cyclotron Resonance (ICR) spectrometer. Absorbance spectra were obtained using an Agilent 8453 UV-visible spectroscopy system. Fluorescence was measured on a Varian (Agilent) Cary Eclipse Fluorimeter. Quantum yield measurements were calculated and reported using coumarin 151 in ethanol as a standard.^1 Fluorescence scans were obtained using a 2.5 mm slit width unless otherwise noted.
The fluorescence was also measured in different solvents to examine the solvent effects.

The mark [1] stands for this setting: coumarin 151 in ethanol as standard, 2.5 mm slit width, measurements run with methanol.
The mark [2] stands for this setting: 2.5 mm slit width, measurements run with methanol.

With `COC(=O)c1cccc2nc(-c3cc(OC)cc(OC)c3)c(N)n12` [Compound 10x, methyl 3-amino-2-(3,5-dimethoxyphenyl)imidazo[1,2-a]pyridine-5-carboxylate], the “fluorescence (observation in words)” value is listed as “quenched fluorescence altogether”. Besides, the λex (measurements run with methanol) is 400 nm.
Compound `COc1cc(OC)cc(-c2nc3cc(Br)ccn3c2N)c1` [Compound 10y, 7-bromo-2-(3,5-dimethoxyphenyl)imidazo[1,2-a]pyridin-3-amine] had a λex (measurements run with methanol) of 349 nm. Further, the “Quantum Yield” value under setting [1] turned out to be 0.01. The compound further displayed a λem under setting [2] of 487 nm.
As for `COc1cccc(/C=N/c2c(-c3cccc(OC)c3)c(C#N)c3ccccn23)c1` [Compound 14a, (E)-3-((3-methoxybenzylidene)amino)-2-(3-methoxyphenyl)indolizine-1-carbonitrile], the “fluorescence (observation in words)” value was “quenched fluorescence”.
As for `COc1cccc(-c2nc3c(nc4ccccn43)c3c(OC)c(OC)ccc23)c1OC` [Compound 16b, 5-(2,3-dimethoxyphenyl)-1,2-dimethoxypyrido[2′,1′:2,3]imidazo[4,5-c]isoquinoline], the λex (measurements run with methanol) came to 366 nm. Besides, the “Quantum Yield” value under setting [1] is recorded as 0.34. For the same compound, the λem under setting [2] was 418 nm.
Turning to `COc1cc(-c2nc3c(nc4ccccn43)c3cc(OC)c(OC)c(OC)c23)cc(OC)c1OC` [Compound 16c, 2,3,4-trimethoxy-5-(3,4,5-trimethoxyphenyl)pyrido[2′,1′:2,3]imidazo[4,5-c]isoquinoline], under “measurements run with methanol”, the λex amounted to 367 nm. For the same compound, under setting [1], the “Quantum Yield” value worked out at 0.01. Under setting [2], this compound came in with a λem of 428 nm.
For `COc1cc(OC)cc(-c2nc3c(nc4ccccn43)c3cc(OC)cc(OC)c23)c1` [Compound 16d, 5-(3,5-dimethoxyphenyl)-2,4-dimethoxypyrido[2′,1′:2,3]imidazo[4,5-c]isoquinoline], where the note is “measurements run with methanol”, the λex amounted to 364 nm. Besides, the “Quantum Yield” value under setting [1] came out at 0.01. For the same compound, the λem under setting [2] is listed as 415 nm.
The like results for `c1ccc2cc(-c3nc4c(nc5ccccn54)c4ccc5ccccc5c34)ccc2c1` [Compound 16e, 7-(naphthalen-2-yl)benzo[h]pyrido[2′,1′:2,3]imidazo[4,5-c]isoquinoline] were, in that order, 389 nm, 0.01 and 442 nm.
Where the note is “measurements run with methanol”, `COc1cc(-c2nc3c(nc4cccnn43)c3cc(OC)c(OC)c(OC)c23)cc(OC)c1OC` [Compound 16f, 2,3,4-trimethoxy-5-(3,4,5-trimethoxyphenyl)pyridazino[6′,1′:2,3]imidazo[4,5-c]isoquinoline] yielded a λex of 295 nm. Further, the “Quantum Yield” value under setting [1] is 0.07. The λem under setting [2] turned out to be 488 nm.
Under “measurements run with methanol”, `COc1cc(-c2nc3c(nc4ncccn43)c3cc(OC)c(OC)c(OC)c23)cc(OC)c1OC` [Compound 16g, 2,3,4-trimethoxy-5-(3,4,5-trimethoxyphenyl)pyrimido[2′,1′:2,3]imidazo[4,5-c]isoquinoline] had a λex of 296 nm. The “Quantum Yield” value under setting [1] is listed as 0.07. The compound further registered a λem under setting [2] of 510 nm.
For the setting “measurements run with methanol”, `COc1cc(-c2nc3c(nc4cccc(Br)n43)c3cc(OC)c(OC)c(OC)c23)cc(OC)c1OC` [Compound 16h, 8-bromo-2,3,4-trimethoxy-5-(3,4,5-trimethoxyphenyl)pyrido[2′,1′:2,3]imidazo[4,5-c]isoquinoline] gave a λex of 265 nm. In addition, the “Quantum Yield” value under setting [1] is on record as 0.002. The compound also showed a λem under setting [2] of 553 nm.
Turning to `COc1cc(OC)c2c(-c3ccccc3)nc3c(nc4ccccn43)c2c1` [Compound 18a, 2,4-dimethoxy-5-phenylpyrido[2′,1′:2,3]imidazo[4,5-c]isoquinoline], the “fluorescence (observation in words)” value is reported as “not observable by the naked eye”. This compound returned a λex (measurements run with methanol) of 365 nm. Further, under setting [1], the “Quantum Yield” value was determined as 0.01. This compound registered a λem under setting [2] of 422 nm. Under “tetracyclic indolizines of Example I”, this compound displayed a Quantum Yield of 0.01.
Consider `COc1cc(OC)c2c(-c3ccc([N+](=O)[O-])cc3)nc3c(nc4ccccn43)c2c1` [Compound 18b, 2,4-dimethoxy-5-(4-nitrophenyl)pyrido[2′,1′:2,3]imidazo[4,5-c]isoquinoline], for which the “fluorescence (observation in words)” value is recorded as “quenched the fluorescence fully”. The compound also had a λex (measurements run with methanol) of 370 nm.
For the compound `COC(=O)c1ccn2c(c1)nc1c3cc(OC)cc(OC)c3c(/C=C/c3ccccc3)nc12` [Compound 18c, methyl (E)-2,4-dimethoxy-5-styrylpyrido[2′,1′:2,3]imidazo[4,5-c]isoquinoline-10-carboxylate], under “measurements run with methanol”, the λex turned out to be 325 nm. For the same compound, under setting [1], the “Quantum Yield” value was 0.19. For the same compound, the λem under setting [2] turned out to be 510 nm.
Take `Cc1nn2c(NC(C)(C)C)c(-c3ccccc3)nc2nc1/C=C/c1ccccc1` [Compound 42, (E)-N-(tert-butyl)-2-methyl-6-phenyl-3-styrylimidazo[1,2-b][1,2,4]triazin-7-amine]: the λex (measurements run with methanol) worked out at 453 nm. Also, the “Quantum Yield” value under setting [1] was determined as 0.11. The compound also yielded a λem under setting [2] of 636 nm.
Consider `Cc1nn2c(NC(C)(C)C)c(-c3ccc4ccccc4c3)nc2nc1/C=C/c1ccc2ccccc2c1` [Compound 43, (E)-N-(tert-butyl)-2-methyl-6-(naphthalen-2-yl)-3-(2-(naphthalen-2-yl)vinyl)imidazo[1,2-b][1,2,4]triazin-7-amine], for which the λex (measurements run with methanol) is on record as 485 nm. The “Quantum Yield” value under setting [1] is reported as 0.22. Further, the λem under setting [2] turned out to be 643 nm.
Under “measurements run with methanol”, `COc1ccc(/C=C/c2nc3nc(-c4ccc(OC)cc4)c(NC(C)(C)C)n3nc2C)cc1` [Compound 44, (E)-N-(tert-butyl)-6-(4-methoxyphenyl)-3-(4-methoxystyryl)-2-methylimidazo[1,2-b][1,2,4]triazin-7-amine] showed a λex of 486 nm. Under setting [1], the “Quantum Yield” value was found to be 0.27. This compound also registered a λem under setting [2] of 643 nm.
Under “measurements run with methanol”, `Cc1nn2c(NC(C)(C)C)c(-c3ccc([N+](=O)[O-])cc3)nc2nc1/C=C/c1ccc([N+](=O)[O-])cc1` [Compound 45, (E)-N-(tert-butyl)-2-methyl-6-(4-nitrophenyl)-3-(4-nitrostyryl)imidazo[1,2-b][1,2,4]triazin-7-amine] returned a λex of 505 nm. Further, under setting [1], the “Quantum Yield” value is reported as 0.11. Under setting [2], this compound gave a λem of 655 nm.
Where the note is “measurements run with methanol”, `COc1cc(/C=C/c2nc3nc(-c4cc(OC)cc(OC)c4)c(NC(C)(C)C)n3nc2C)cc(OC)c1` [Compound 46, (E)-N-(tert-butyl)-6-(3,5-dimethoxyphenyl)-3-(3,5-dimethoxystyryl)-2-methylimidazo[1,2-b][1,2,4]triazin-7-amine] gave a λex of 461 nm. Further, under setting [1], the “Quantum Yield” value was 0.19. The same compound had a λem under setting [2] of 638 nm.
`Cc1nn2c(NC(C)(C)C)c(-c3cccs3)nc2nc1/C=C/c1cccs1` [Compound 47, (E)-N-(tert-butyl)-2-methyl-6-(thiophen-2-yl)-3-(2-(thiophen-2-yl)vinyl)imidazo[1,2-b][1,2,4]triazin-7-amine] returned a λex (measurements run with methanol) of 513 nm. Besides, the “Quantum Yield” value under setting [1] is listed as 0.33. Under setting [2], this compound gave a λem of 647 nm.
For `COc1cc(/C=C/c2nc3nc(-c4cc(OC)c(OC)c(OC)c4)c(NC(C)(C)C)n3nc2C)cc(OC)c1OC` [Compound 48, (E)-N-(tert-butyl)-2-methyl-6-(3,4,5-trimethoxyphenyl)-3-(3,4,5-trimethoxystyryl)imidazo[1,2-b][1,2,4]triazin-7-amine], in that order: 506 nm, 0.28 and 633 nm.
Consider `CCN(CC)c1ccc(/C=C/c2nc3nc(-c4ccc(N(CC)CC)cc4)c(NC(C)(C)C)n3nc2C)cc1` [Compound 49, (E)-N-(tert-butyl)-6-(4-(diethylamino)phenyl)-3-(4-(diethylamino)styryl)-2-methylimidazo[1,2-b][1,2,4]triazin-7-amine], for which, where the note is “measurements run with methanol”, the λex was found to be 566 nm. Also, the “Quantum Yield” value under setting [1] was 0.45. The compound further yielded a λem under setting [2] of 653 nm.
In the case of `Cc1nn2c(/N=C/c3ccccc3)c(-c3ccccc3)nc2nc1/C=C/c1ccccc1` [Compound 58, (E)-N-(2-methyl-6-phenyl-3-((E)-styryl)imidazo[1,2-b][1,2,4]triazin-7-yl)-1-phenylmethanimine], the λex (measurements run with methanol) amounted to 510 nm. Besides, under setting [1], the “Quantum Yield” value is on record as 0.04. The λem under setting [2] was determined as 601 nm.
Under “measurements run with methanol”, `Cc1nn2c(/N=C/c3ccc4ccccc4c3)c(-c3ccc4ccccc4c3)nc2nc1/C=C/c1ccc2ccccc2c1` [Compound 59, (E)-N-(2-methyl-6-(naphthalen-2-yl)-3-((E)-2-(naphthalen-2-yl)vinyl)imidazo[1,2-b][1,2,4]triazin-7-yl)-1-(naphthalen-2-yl)methanimine] gave a λex of 526 nm. Moreover, the “Quantum Yield” value under setting [1] came out at 0.04. Under setting [2], this compound displayed a λem of 601 nm.
Regarding `COc1ccc(/C=C/c2nc3nc(-c4ccc(OC)cc4)c(/N=C/c4ccc(OC)cc4)n3nc2C)cc1` [Compound 60, (E)-1-(4-methoxyphenyl)-N-(6-(4-methoxyphenyl)-3-((E)-4-methoxystyryl)-2-methylimidazo[1,2-b][1,2,4]triazin-7-yl)methanimine], the λex (measurements run with methanol) amounted to 563 nm. For the same compound, under setting [1], the “Quantum Yield” value is 0.19. Under setting [2], the λem is 609 nm.
